Experimental findings from PMC11187126, “Structure and dynamics of the pyroglutamylated RF-amide peptide QRFP receptor GPR103” (Nature Communications, 2024) are described below.

Like-named read-outs stand apart in the source and are kept apart here. No end group written: not given here.

The target in this test is T1, GPR103 L193^ECL2A (Homo sapiens, UniProt Q96P65, L193A).
T1 construct: we used human full-length QRFPR-encoding plasmids; expressed in transfected cells; host or cells: HEK293 cells, pCAGGS vector
T1 sequence (Q96P65 1-431 L193A): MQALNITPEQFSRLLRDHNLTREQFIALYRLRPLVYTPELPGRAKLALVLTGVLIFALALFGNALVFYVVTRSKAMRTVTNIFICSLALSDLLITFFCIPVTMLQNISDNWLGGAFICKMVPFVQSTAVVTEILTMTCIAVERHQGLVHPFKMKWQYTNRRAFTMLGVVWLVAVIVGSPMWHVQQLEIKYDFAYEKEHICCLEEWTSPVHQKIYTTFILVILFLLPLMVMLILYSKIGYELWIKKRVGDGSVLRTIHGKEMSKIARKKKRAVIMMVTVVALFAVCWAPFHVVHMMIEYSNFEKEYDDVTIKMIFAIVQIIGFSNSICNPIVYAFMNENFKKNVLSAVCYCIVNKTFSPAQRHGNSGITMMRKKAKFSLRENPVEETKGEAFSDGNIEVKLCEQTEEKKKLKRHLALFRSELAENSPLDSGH
In words: TGFα shedding assay; Exp. level WT (1:50). The test is classed as cell-based. Here is the method: For the TGFα shedding assay and the flow cytometry analysis, we used human full-length QRFPR-encoding plasmids. Specifically, GPR103 was N-terminally modified with an HA signal sequence followed by a FLAG epitope and then a flexible linker ([…]; the FLAG epitope is underlined) and inserted into the pCAGGS vector. Plasmid encoding GPR103 mutants were generated using Quickchange Site-Directed Mutagensis kit (Agilent).
The TGFα shedding assay was performed as described previously with minor modifications. Plasmid transfection was performed in a 6-well plate with a mixture of 500 ng (per well in a 6-well plate) AP-TGFα-encoding plasmid and 200 ng GPR103-encoding plasmid. After 1-day culture, the transfected cells were harvested by trypsinization, pelleted by centrifugation at 190 × g for 5 min, and washed once with 5 mM HEPES (pH 7.4)-containing Hank’s Balanced Salt Solution (HBSS). After centrifugation, the cells were resuspended in 8 mL of the HEPES-containing HBSS. The cell suspension was seeded in a 96-well culture plate (cell plate) at a volume of 90 μL (per well hereafter) and incubated in a 37 °C incubator with 5% CO2 for 30 min. […] After spinning the cell plates at 190 × g for 2 min, 80 μL of conditioned media was transferred to an empty 96-well plate (conditioned media (CM) plate). Then, 80 μL of AP reaction solution (10 mM p-nitrophenylphosphate (p-NPP), 120 mM Tris-HCl (pH 9.5), 40 mM NaCl, and 10 mM MgCl2) was dispensed into the cell plates and the CM plates. Absorbance at 405 nm of the plates was measured using a microplate reader (SpectraMax 340 PC384, Molecular Devices) before and after 1-h incubation at room temperature. Ligand-induced AP-TGFα release was calculated by subtracting spontaneous AP-TGFα release signal from ligand-induced AP-TGFα release signal. The AP-TGFα release signals were fitted to a four-parameter sigmoidal concentration–response curve, using the Prism 10 software (GraphPad Prism). For each replicate experiment, the pEC50 parameter (negative logarithmic values of EC50 values) of the individual GPR103 mutants were normalized to that of the wild-type GPR103 performed in parallel, and resulting ∆pEC50 values were used to denote ligand response activity of the mutants. […]
Exp. le vel: WT (1:5 0)Exp. le vel: WT (1:5 0)Exp. le vel: WT (1:5 0)Exp. le vel: WT (1:2 0)Exp. le vel: WT (1:2 0)Exp. le vel: WT (1:1 0) […]
L1 4N - t e r mA F2 5N - t e r mA I 2 6N - t e r mA Y 2 9N - t e r mA C 9 82 .5 7A T10 22 .6 1A Exp . l eve l: WT (1 :5)Exp . l evel : >WT (1 :1)Exp. le vel: WT (1:2 0)Exp. le vel: WT (1:2 0)Exp. le vel: WT (1:5 0)Exp . l eve l: WT (1 :1) […]
Exp. le vel: WT (1:1 0)Exp. le vel: WT (1:2 0) C 1 1 83 .2 5AExp. le vel: WT (1:5 0)Exp. le vel: WT (1:5 0)Exp. le vel: WT (1:2 0)Exp . l eve l: WT (1 :5) […]
Exp. le vel: WT (1:5 0)Exp. le vel: WT (1:1 0)Exp. le vel: WT (1:5 0) E203ECL2AExp . l evel : >WT (1 :1)Exp. le vel: WT (1:5 0)Exp. le vel: WT (1:5 0) […]
Exp . l eve l: WT (1 :1) F28Exp. le vel: WT (1:5 0) C 2 8 56 .4 7AExp. le vel: WT (1:2 0) WExp. le vel: WT (1:2 0) F28Exp. le vel: WT (1:5 0)Exp . l evel : >WT (1 :1) […]
Exp. le vel: WT (1:5 0)Exp. le vel: WT (1:5 0) C 3 2 77 .4 8AExp . l eve l: WT (1 :5)Exp . l evel : >WT (1 :1)Exp . l evel : >WT (1 :1) […]
Suppl eme nt ary Figure 1 | Mutational analysis of GPR103. […]
mutants. Data are presented as mean values ± SEM, normally n=3-5; dots), each performed in triplicate. b-d Cell-surface expression (b) and QRFP26-in-duced activation of GPR103 (c, d) were analyzed by the flow cytometry and the TGFα shedding assay, respectively. From the concentration–response curves (a), Emax (c) and ΔpEC50 (d) values relative to the wild type were calculated. Colors in the mutant bars indicate an expression level matching to that of titrated wild type. Statistical analyses were performed using the ordinary one-way ANOVA followed by Dunnett tests with the expression-matched […]

What is called EC50 is the midpoint of the concentration-response curve. Read a low EC50 as an effect from little substance.

Turning to TSGPLGNLAEELNGYSRKKGGFSFRF-NH2 [QRFP26], the Emax (Exp. #1) is listed as 89.95 % WT; the Emax (Exp. #2) is reported as 86.94 % WT; the Emax (Exp. #3) came out at 94.38 % WT; the Emax (mean, read-out: Emax) is 90.4%; the Emax (n = 3, read-out: Emax) is 93.8 ± 1.8%. The same substance showed an EC50 (n = 3) of 182 nM.
